Test system: Human patients with short bowel syndrome
Test: Example 3: change from baseline to week 24 in liver enzyme levels (ALP, ALT, AST, total bilirubin, GGTP) by responder status (reduced parenteral nutrition)
Assay type: in vivo
Conditions: 0.05 mg/kg/day
Protocol: In this example the data presented in Example 2 are analyzed to evaluate whether the beneficial effects of teduglutide on liver function tests are related to the reduction of parenteral nutrition volume.
Table 5 depicts the change in liver enzyme levels from baseline to week 24 in responders and non-responders. Responders are human patients with reduced parenteral nutrition, while non-responders are human patients without reduced parenteral nutrition. Human patients either received placebo or teduglutide at 0.05 mg/kg/day. Known biomarkers of liver function were monitored for 24 weeks. The liver biomarkers tested included ALP, ALT, AST, total bilirubin and GGTP.
Table 6 depicts the change in liver enzyme levels (ALP, ALT, AST, total bilirubin and GGTP), as presented in Table 5, and stratifies them by treatment group (placebo versus teduglutide at 0.05 mg/kg/day) and responder status (responder versus non-responder).

## CC[C@H](C)[C@H](NC(=O)[C@H](Cc1ccccc1)NC(=O)[C@H](CC(=O)O)NC(=O)[C@H](CCCNC(=N)N)NC(=O)[C@H](C)NC(=O)[C@H](C)NC(=O)[C@H](CC(C)C)NC(=O)[C@H](CC(N)=O)NC(=O)[C@H](CC(=O)O)NC(=O)[C@H](CC(C)C)NC(=O)[C@@H](NC(=O)[C@@H](NC(=O)[C@H](CC(N)=O)NC(=O)[C@H](CCSC)NC(=O)[C@H](CCC(=O)O)NC(=O)[C@H](CC(=O)O)NC(=O)[C@H](CO)NC(=O)[C@H](Cc1ccccc1)NC(=O)[C@H](CO)NC(=O)CNC(=O)[C@H](CC(=O)O)NC(=O)CNC(=O)[C@@H](N)Cc1c[nH]cn1)[C@@H](C)O)[C@@H](C)CC)C(=O)N[C@@H](CC(N)=O)C(=O)N[C@@H](Cc1c[nH]c2ccccc12)C(=O)N[C@@H](CC(C)C)C(=O)N[C@H](C(=O)N[C@@H](CCC(N)=O)C(=O)N[C@H](C(=O)N[C@@H](CCCCN)C(=O)N[C@H](C(=O)N[C@H](C(=O)N[C@@H](CC(=O)O)C(=O)O)[C@@H](C)O)[C@@H](C)CC)[C@@H](C)O)[C@@H](C)CC [teduglutide]
Baseline to week 24
  relation of effect on liver function tests to reduction of parenteral nutrition (responders vs non-responders): the major part of the effect is not mediated through the reduction of parenteral nutrition
Non-responder, n=11
  ALKALINE PHOSPHATASE change from Baseline to Week 24, Mean: −13.82 U/L
  ALKALINE PHOSPHATASE change from Baseline to Week 24, Median: −7 U/L
  ALT change from Baseline to Week 24, Mean: −3.82 U/L
  ALT change from Baseline to Week 24, Median: −3 U/L
  AST change from Baseline to Week 24, Mean: −2.18 U/L
  AST change from Baseline to Week 24, Median: −2 U/L
  BILIRUBIN, TOTAL change from Baseline to Week 24, Mean: -2.43 µmol/L
  BILIRUBIN, TOTAL change from Baseline to Week 24, Median: -1.7 µmol/L
  GGTP change from Baseline to Week 24, Mean: −1.91 U/L
  GGTP change from Baseline to Week 24, Median: 3 U/L
Responder, n=27
  ALKALINE PHOSPHATASE change from Baseline to Week 24, Mean: −35.52 U/L
  ALKALINE PHOSPHATASE change from Baseline to Week 24, Median: −34 U/L
  ALT change from Baseline to Week 24, Mean: −17.48 U/L
  ALT change from Baseline to Week 24, Median: −14 U/L
  AST change from Baseline to Week 24, Mean: −7.30 U/L
  AST change from Baseline to Week 24, Median: −7 U/L
  BILIRUBIN, TOTAL change from Baseline to Week 24, Mean: -4.19 µmol/L
  BILIRUBIN, TOTAL change from Baseline to Week 24, Median: -2.4 µmol/L
  GGTP change from Baseline to Week 24, Mean: −18.41 U/L
  GGTP change from Baseline to Week 24, Median: −10 U/L
Total, n=38
  ALKALINE PHOSPHATASE change from Baseline to Week 24, Mean: −29.24 U/L
  ALKALINE PHOSPHATASE change from Baseline to Week 24, Median: −24.5 U/L
  ALT change from Baseline to Week 24, Mean: −13.53 U/L
  ALT change from Baseline to Week 24, Median: −7.5 U/L
  AST change from Baseline to Week 24, Mean: −5.82 U/L
  AST change from Baseline to Week 24, Median: −5 U/L
  BILIRUBIN, TOTAL change from Baseline to Week 24, Mean: -3.68 µmol/L
  BILIRUBIN, TOTAL change from Baseline to Week 24, Median: -2.35 µmol/L
  GGTP change from Baseline to Week 24, Mean: −13.63 U/L
  GGTP change from Baseline to Week 24, Median: −6 U/L
By Treatment
  ALKALINE PHOSPHATASE change from Baseline to Week 24, LS Means: −24.67 U/L
  ALT change from Baseline to Week 24, LS Means: −10.65 U/L
  AST change from Baseline to Week 24, LS Means: −4.74 U/L
  BILIRUBIN, TOTAL change from Baseline to Week 24, LS Means: -3.31 µmol/L
  GGTP change from Baseline to Week 24, LS Means: −10.16 U/L

— patent US20130072430A1, “METHODS FOR TREATMENT OR PROPHYLAXIS OF KIDNEY OR LIVER DYSFUNCTION” (NPS PHARMACEUTICALS, INC., priority 2010, published 2013)
